Entries after “also recorded” stand apart in the source; their conditions may differ. No end group written: not given here.
Key:
[1] = molecular target: T1, Aβ(1-42) globulomer formation (Homo sapiens, UniProt P05067); assay: Induction of Aβ(1-42) globulomer formation by fatty acids replacing SDS (SDS-PAGE); assay type: biochemical; settings: fatty acid in place of SDS, neutral pH
T1 construct: Aβ(1-42) synthetic peptide (Cat. No. H-1368, Bachem, Switzerland); purchased Bachem H-1368; host or cells: chemical synthesis; oligomerised in house (HFIP, DMSO, 0.2% SDS or 0.5% fatty acid, dilution)
T1 sequence (P05067 672-713 limits assumed): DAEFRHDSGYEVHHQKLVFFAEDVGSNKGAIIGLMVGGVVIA
Experimental: Lanes: (1) control without inducing agent, (2) positive control with 0.2% SDS, (3) 0.5% lauric acid (12:0), (4) 0.5% oleic acid (18:1), (5) linoleic acid […], (6) eicosapentanoic acid (20:5), (7) docosatetranoic acid (22:4), (8) docosahexanoic acid (22:6), (9) positive control with 0.2% SDS, (10) 1% arachidonic acid. Yields of Aβ(1-42) globulomer (g, indicated with arrowheads) differ between various fatty acids;
A solution of Aβ(1-42) globulomers was prepared as described in example 5a of WO2004/067561. Briefly, Aβ(1-42) synthetic peptide (Cat. No. H-1368, Bachem, Switzerland) was suspended in 1,1,1,3,3,3-hexafluoro-2-propanol (HFIP) at […] and incubated for complete solubilization under shaking at 37° C. for 1.5 h. HFIP was removed by evaporation in a SpeedVac and Aβ(1-42) resuspended at a concentration of 5 mM in dimethyl sulfoxide (DMSO) and 20 sec sonicated. The HFIP pretreated Aβ(1-42) was diluted in phosphate buffered solution (PBS) (20 mM NaH2PO4, 140 mM NaCl, pH 7.4) to 400 μM and 1/10 volume 2% SDS (in H2O) added (final concentration of 0.2% sodium dodecyl sulfate (SDS)).

[2] = In vitro stability in PBS at different temperatures, SDS-PAGE; assay type: physicochemical
Experimental: The sample at 0.5 mg/ml in 20 mM NaH2PO4; 140 mM NaCl; pH 7.4 was incubated at room temperature and 37° C. for 1 day and 4 days, respectively. An aliquot of 10 μl of the samples was analyzed by SDS-PAGE.
An aliquot of 100 μl of each of the samples was analyzed by SDS-PAGE.

neuronal cell-lines = assay: Binding of Aβ(1-42) globulomer to neuronal cell-lines; assay type: cell-based; settings: data not shown
hippocampal neurons = assay: Binding of Aβ forms to cultured hippocampal neurons (immunofluorescence); assay type: cell-based, rat
Experimental: (§1) Hippocampal cells from rat brain (QBM Cell Science, Canada) were cultured in 24-well plates on poly-L-lysine coated coverslips (BD Biosciences, Germany) in Neurobasal medium with B27 supplement (Invitrogen, Germany) at 37° C., 5% 002. To some cultures mitosis inhibitors (35 μg/ml uridine, 15 μg/ml 5-fluoro-2′-deoxyuridine) were added at DIV6 to prevent an overgrowing with glia. Unless otherwise stated hippocampal cells were used at DIV13-14.
Cells were rinsed three times with 1 ml medium and fixed with 3.7% buffered formaldehdye (Accustain, Sigma, Germany). Unspecific binding sites were blocked by incubation with 10% normal goat serum in PBS (pH 7.4) for 90 min at room temperature to which 0.1% Triton X-100 was added in the case of intracellular counterstaining. […] After each antibody incubation cells were washed three times with PBS and finally mounted in ProLong antifade reagent (Molecular Probes, Germany).

APP/Lo mice = assay: Novel object recognition task after active immunization of APP/Lo mice; assay type: in vivo, mouse; settings: for RI compared with mice treated with Aβ(1-42) monomer or vehicle: P<0.01, ANOVA, post-hoc Holm-Sidak t-test; for Short term memory for objects: active immunization
Description: APP [V717I] C57BI×FVB female mice (n=36; 6 weeks old) were used for this study (Moechars et al., 1999). All mice were housed and bred in the animal housing facilities of the Catholic University Leuven, Campus Gasthuisberg, in accordance with the Belgian ethical law on housing, breeding and handling laboratory animals.
They were genotyped by polymerase chain reaction (PCR) at the age of 3 weeks and were double checked by a second PCR at the onset of the study. All mice were blind randomised, age-matched and allocated randomly to a treatment. Animals were re-caged by treatment group one day before the onset of the study in order to allow them to familiarize to the new cage context. […] The food was stored under dry and cool conditions in a well-ventilated storage room. The amount of water and food was checked daily, supplied when necessary and standard refreshed twice a week. Mice were housed under a reversed day-night rhythm: 14 hours light/10 hours darkness, light starting at 7 p.m., in standard metal cages type RVS T2 (area of 540 cm^2) equipped with solid floors and layer of bedding litter.
The first injection contained 50% (v/v) complete Freund's Adjuvants (Difco Laboratories, Detroit, Mich., USA, ref no 263810) while the boost injections contained 50% (v/v) incomplete Freund's Adjuvant (Difco Laboratories, Detroit, Mich., USA, ref no 263910). Administration of compounds was performed every 3 weeks during 3 months (at week 0/3/6/9/12). • Novel object recognition task in immunized mice:
After the last injection all mice underwent a novel objection recognition task. The protocol used followed the method as described by Dewachter I. et al., Journal of Neuroscience, 2002, 22(9):3445-3453. Mice were familiarized for one hour to a Plexiglas open-field box (52×52×40 cm) with black vertical walls and a translucent floor, dimly illuminated by a lamp placed underneath the box. The next day the animals were placed in the same box and submitted to a 10 minutes acquisition trial. During this trial mice were placed individually in the open field in the presence of object A (blue ball or red cube, similar sized of ±4 cm), and the duration (timeAA) and the frequency (FreqAA) exploring object A (when the animals snout was directed towards the object at a distance of <1 cm and the mice were actively sniffing in the direction of the object) was recorded by a computerized system (Ethovision, Noldus information Technology, Wageningen, the Netherlands). During a 10 minutes retention trial (second trial) performed 3 hours later, a novel object (object B, red cube or blue ball) was placed together with the familiar object (object A) into the open field. (FreqA and FreqB and TimeA and TimeB, respectively).
The recognition index (RI), defined as the ratio of the duration in which the novel object was explored over the duration in which both objects were explored [TimeB/(TimeA+TimeB)×100], was used to measure non-spatial memory. The duration and frequency object A was explored during the acquisition trial (TimeAA and FreqAA) was used to measure curiosity.

glia = assay: Binding of Aβ(1-42) globulomer to glia in hippocampal cultures; assay type: cell-based, rat; settings: hippocampal preparation, GFAP positive cells
Experimental: as §1, with “DIV13-14. When Aβ-forms were added, 750 μL fresh 37° C. warm medium containing the Aβ-forms were exchanged of the total 1 ml. Incubation took place for 15 min at 37° C., 5% CO2.” for “DIV13-14.”
Cells were rinsed three times with 1 ml medium and fixed with 3.7% buffered formaldehdye (Accustain, Sigma, Germany). Unspecific binding sites were blocked by incubation with 10% normal goat serum in PBS (pH 7.4) for 90 min at room temperature to which 0.1% Triton X-100 was added in the case of intracellular counterstaining. Primary antibodies (anti Aβ 6E10 (Signet Laboratories, USA), 1:2000; anti GFAP (Dako Cytomation, Germany), 1:2500; anti MAP2 (Chemicon International, Germany), 1:1000) and secondary antibodies (Alexa 488, 1:500; Alexa 635, 1:500; Molecular Probes, Germany) were subsequently incubated for 2 h at room temperature in 10% normal goat serum in PBS (pH 7.4). […]

long-term potentiation = assay: Long-term potentiation in rat brain slices (CA1 field potentials); assay type: cell-based
Experimental: Slices were prepared from male Sprague-Dawley rats (7-8 weeks old). Isolated hemispheres were trimmed and then cut using a vibratome. Slices ([…]) were directly transferred to an interface recording chamber and continuously perfused at 33° C. with oxygenated artificial CSF (aCSF: 118 mM NaCl, 1.24 mM KH2PO4, 10 mM glucose, 2 mM MgSO4, 2.5 mM CaCl2, 5 mM KCl, 25.6 mM NaHCO3) at a flow rate of 1.8 ml/min. Freshly prepared slices were allowed to equilibrate for at least one hour before recording. Field potentials were obtained from stratum radiatum of CA1 using glass microelectrodes (0.8-1.2 MΩ) filled with aCSF. The Schaffer collateral was stimulated by a bipolar tungsten electrode (0.5 MO, Science Products GmbH, Germany). Constant voltage biphasic pulses (0.1 ms/phase; range 1-5 V) were applied once per minute at an intensity yielding 30% of the fEPSP maximum. LTP was induced by 2 trains of 100 Hz (1 sec/train with 10 sec intertrain intervall) using the same intensity and pulse length. […] Signals were digitized by a Power CED 1401 and analyzed using the software Signal 2.14 (Cambridge Electronic Design Ltd., Cambridge). For statistical comparison data were analyzed by 2-way repeated measures ANOVA using SAS.

[3] = Intracranial injection in rats: in vivo binding and tissue penetration; settings: rat
Experimental: For electrophysiological and histological studies, male Sprague-Dawley rats were obtained from Janvier (France) at an age of about 8 weeks.
The rats (260-430 g) were anesthetized with pentobarbital (60 mg/kg i.p.; Narcoren) and fixed in a stereotaxic apparatus according to Paxinos and Watson^36. […] A total volume of 4.3 μL was infused by a 10 μL Hamilton syringe attached to a motorized micropump (WPI, Germany) during 5 min with the cannula being left in place for additional 2 min. […] The infusion was applied via a 10 μL Hamilton syringe during 5 min with the cannula being left in place for additional 5 min.
Therefore, rats were deeply anesthetized with Narcoren. […] Then, the rats were transcardially perfused with 10 mM PBS (pH 7.2) for 5 min, followed by 4% paraformaldehyde (PFA) in PBS. The brains were removed, postfixed overnight in 4% PFA in PBS containing 30% sucrose and transferred into 30% sucrose in PBS for cryoprotection.
A Cy3-labeled donkey anti-mouse antibody (Jackson Laboratories) was used for fluorescence labelling for 1 h. Between the steps and at the end, sections were thoroughly washed in TBST three times for 5 min, after which they were mounted onto glass slides, air-dried and cover-slipped with Vectashield hardest mounting medium containing DAPI (Vector Laboratories) to visualize cell nuclei. All incubations were performed at room temperature. Some sections were also stained with 0.05% thioflavine S (Sigma, Germany) in 50% ethanol for 10 min, followed by two rinses of 100% ethanol for 5 min before embedding in Vectashield. Analysis of labelling was performed under a confocal fluorescence microscope (Zeiss LSM 510 Meta, Germany).

Molecule: CCCCC/C=C\C/C=C\C/C=C\C/C=C\CCCC(=O)O [arachidonic acid]
- Induction of the characteristic 38/48 kDa Aβ(1-42) globulomer [1]: induced

Molecule: CC/C=C\C/C=C\C/C=C\C/C=C\C/C=C\C/C=C\CCC(=O)O [docosahexanoic acid]
- Induction of the characteristic 38/48 kDa Aβ(1-42) globulomer [1]: could not generate

Molecule: CC/C=C\C/C=C\C/C=C\C/C=C\C/C=C\CCCC(=O)O [eicosapentanoic acid]
- Induction of the characteristic 38/48 kDa Aβ(1-42) globulomer [1]: created a partly shifted oligomer

Molecule: CCCCCCCCCCCC(=O)O [lauric acid]
- Induction of the characteristic 38/48 kDa Aβ(1-42) globulomer [1]: induced

Molecule: CCCCC/C=C\C/C=C\CCCCCCCC(=O)O [linoleic acid]
- Induction of the characteristic 38/48 kDa Aβ(1-42) globulomer [1]: could not generate

Molecule: CCCCCCCC/C=C\CCCCCCCC(=O)O [oleic acid]
- Induction of the characteristic 38/48 kDa Aβ(1-42) globulomer [1]: induced

Molecule: Aβ(1-42) globulomer: soluble, globular, non-covalent association of about 12 Aβ(1-42) peptides generated from synthetic peptide with SDS
- Stable in PBS ([2]; PBS, ambient temperature and 37° C.): at least 4 days
- Globulomer structure maintained without disassembly or further polymerization to fibrils ([2]; in vitro, physiological temperature (37° C.)): up to 4 days
- Binding to neuronal cell-lines (neuronal cell-lines): negative
- Binding to hippocampal neurons (hippocampal neurons; 200 nM based on monomer (17 nM globulomer), 15 min, 37° C.): strong binding
- Hippocampal neurons binding globulomer (hippocampal neurons; DIV8): −1%
- RI compared with mice treated with Aβ(1-42) monomer or vehicle (APP/Lo mice): significantly higher
- Short term memory for objects (APP/Lo mice): selectively improved
- Binding to glia (glia): did not bind
- Time after tetanization at which potentiation was significantly impaired (as early as) (long-term potentiation; 42 nM, p<0.05): 5 min
- High frequency stimulation-induced LTP (long-term potentiation; 42 nM, rat brain slices): completely blocks; also recorded: complete block
- Basic synaptic functioning (input/output relation) (long-term potentiation; treated versus untreated slices): not impaired
- Binding to cells of the ventricle walls ([3]; injection into ventricle): rapid and persistent binding
- Cell toxicity along the ventricle wall (cell density) ([3]; injection into ventricle): without obvious cell toxicity
- Diffusion from ependyme into underlying brain tissue ([3]; injection into ventricle): without detectable diffusion
- Presence in cerebrospinal fluid after injection ([3]; injection into ventricle, data not shown): completely disappeared
- Tissue penetration ([3]; intracerebral injection): Poor tissue penetration

Molecule: Aβ(20-42) globulomer: truncated globulomer from Aβ(20-42) peptide or thermolysin proteolysis of Aβ(1-42) globulomer (FAEDVGSNKGAIIGLMVGGVVIA; also: globulomer (oligomeric assembly))
- RI compared with mice treated with Aβ(1-42) monomer or vehicle (APP/Lo mice): significantly higher
- Short term memory for objects (APP/Lo mice): selectively improved
- Recognition index (RI) (APP/Lo mice; second encounter, 3 hours after acquisition, P<0.01 vs chance level): more than 50%

Molecule: docosatetranoic acid
- Induction of the characteristic 38/48 kDa Aβ(1-42) globulomer [1]: could not generate
